# Experimental data from ChEMBL document CHEMBL1201862, “PubChem BioAssay data set” (2004).
# The source made the active and inactive calls.
# Experiments:
# [1] = intracellular Trypanosoma cruzi inhibitors in host cells – cell-based, plate reader, cherry-pick samples, set 3, dose response (AID 651818); type: functional;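 note: compounds incubated with infected cells for about four days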
# [2] = target: FAD-linked sulfhydryl oxidase ALR (Homo sapiens, UniProt P55789); assay: ALR-catalysed DTT oxidation blockers – biochemical, H2O2 detection, luminescence, cherry-pick, dose response (AID 493248)
# Chain of FAD-linked sulfhydryl oxidase ALR (P55789 whole entry, the tested form may be a part): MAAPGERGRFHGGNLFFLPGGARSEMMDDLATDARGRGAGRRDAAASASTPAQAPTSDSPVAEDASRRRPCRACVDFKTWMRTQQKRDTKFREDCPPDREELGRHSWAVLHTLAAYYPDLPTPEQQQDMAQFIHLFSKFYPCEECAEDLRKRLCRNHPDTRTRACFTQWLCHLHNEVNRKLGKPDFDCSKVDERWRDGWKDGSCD
# [3] = blockers of HIV-1 envelope-mediated cell-cell fusion – cherry-pick, dose response (AID 652057); type: functional, cell-based
# [4] = blockers of HIV-1 ZM109 envelope-driven cell-cell fusion – HeLa effector, CEM target cells, luciferase, cherry-pick, dose response (AID 652058); type: functional, cell-based;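 note: luciferase signal from HIV-1 Env mediated cell-cell fusion of effector and target cells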
# [5] = HIV-1 AD8 envelope cell-cell fusion blockers – cherry-pick, dose response (AID 652062); type: functional, cell-based;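 note: luciferase signal from cell-cell fusion driven by HIV-1 clade B AD8 Env; potency is for inhibitors of fusion seen as a drop in luminescence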
# H9c2 = assay: cells; type: functional, cell-based; conditions: Rattus norvegicus, H9c2, Myocardium;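 note: confirmatory concentration-response retest of ultra-high-throughput screening hits for modulation of myocardial damage; cell death induced by hydrogen peroxide oxidative stress; compound pretreatment for 60 min then peroxide exposure for 2 h; potency is for protecting the cells against peroxide damage rather than for killing them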
# Cytochrome P450 2C9 [6] = target: T1, Cytochrome P450 2C9 (Homo sapiens, UniProt P11712)
# T1 sequence (P11712 whole entry): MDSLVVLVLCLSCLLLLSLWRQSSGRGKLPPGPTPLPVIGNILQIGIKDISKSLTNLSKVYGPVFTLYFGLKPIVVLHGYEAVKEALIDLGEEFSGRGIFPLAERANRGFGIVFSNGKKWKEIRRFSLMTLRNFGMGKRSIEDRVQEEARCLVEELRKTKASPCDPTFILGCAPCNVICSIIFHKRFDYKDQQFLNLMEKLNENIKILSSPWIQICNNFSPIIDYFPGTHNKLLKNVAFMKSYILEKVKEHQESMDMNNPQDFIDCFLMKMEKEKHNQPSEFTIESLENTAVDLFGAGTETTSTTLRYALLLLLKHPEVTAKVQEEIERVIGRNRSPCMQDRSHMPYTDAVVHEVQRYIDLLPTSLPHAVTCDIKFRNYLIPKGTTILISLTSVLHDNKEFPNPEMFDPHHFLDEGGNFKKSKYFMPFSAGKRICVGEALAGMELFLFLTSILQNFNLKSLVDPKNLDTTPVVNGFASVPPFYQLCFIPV
# Cytochrome P450 3A4 = Cytochrome P450 3A4 (Homo sapiens, UniProt P08684);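 note: CYP3A4 tested as one member of a cytochrome P450 panel screen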
# Chain of Cytochrome P450 3A4 (P08684 whole entry): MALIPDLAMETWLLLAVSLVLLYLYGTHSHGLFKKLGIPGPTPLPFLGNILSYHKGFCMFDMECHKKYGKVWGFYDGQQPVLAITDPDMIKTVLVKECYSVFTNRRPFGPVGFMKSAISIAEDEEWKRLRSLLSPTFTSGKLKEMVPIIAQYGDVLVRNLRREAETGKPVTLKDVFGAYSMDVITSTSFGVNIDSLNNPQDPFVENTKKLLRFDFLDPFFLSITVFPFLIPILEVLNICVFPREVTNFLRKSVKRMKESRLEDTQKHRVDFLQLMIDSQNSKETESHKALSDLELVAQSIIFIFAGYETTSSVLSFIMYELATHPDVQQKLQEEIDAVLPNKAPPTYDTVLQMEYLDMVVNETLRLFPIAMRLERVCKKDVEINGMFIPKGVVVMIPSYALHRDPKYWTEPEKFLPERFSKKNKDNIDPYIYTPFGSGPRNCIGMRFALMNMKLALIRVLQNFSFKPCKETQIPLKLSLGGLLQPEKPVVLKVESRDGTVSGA
# [7] = target: Induced myeloid leukemia cell differentiation protein Mcl-1 (Homo sapiens, UniProt Q07820); type: functional
# Chain of Induced myeloid leukemia cell differentiation protein Mcl-1 (Q07820 whole entry): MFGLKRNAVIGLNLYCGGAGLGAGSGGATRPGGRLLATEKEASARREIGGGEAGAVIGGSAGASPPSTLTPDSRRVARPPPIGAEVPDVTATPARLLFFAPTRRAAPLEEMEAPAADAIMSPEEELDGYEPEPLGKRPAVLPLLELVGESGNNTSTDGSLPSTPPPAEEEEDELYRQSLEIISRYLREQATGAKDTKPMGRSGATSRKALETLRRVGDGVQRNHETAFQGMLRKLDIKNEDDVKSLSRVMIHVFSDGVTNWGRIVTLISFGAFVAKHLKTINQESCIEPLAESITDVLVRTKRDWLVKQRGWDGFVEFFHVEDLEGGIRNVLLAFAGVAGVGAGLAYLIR
# Cytochrome P450 2C19 = Cytochrome P450 2C19 (Homo sapiens, UniProt P33261); assay: Cytochrome panel assay with activity outcomes. Panel member name: p450-cyp2c19 Compounds with AC50 equal or less than 10 uM are considered active; type: functional; conditions: read-out: AC50
# Chain of Cytochrome P450 2C19 (P33261 whole entry): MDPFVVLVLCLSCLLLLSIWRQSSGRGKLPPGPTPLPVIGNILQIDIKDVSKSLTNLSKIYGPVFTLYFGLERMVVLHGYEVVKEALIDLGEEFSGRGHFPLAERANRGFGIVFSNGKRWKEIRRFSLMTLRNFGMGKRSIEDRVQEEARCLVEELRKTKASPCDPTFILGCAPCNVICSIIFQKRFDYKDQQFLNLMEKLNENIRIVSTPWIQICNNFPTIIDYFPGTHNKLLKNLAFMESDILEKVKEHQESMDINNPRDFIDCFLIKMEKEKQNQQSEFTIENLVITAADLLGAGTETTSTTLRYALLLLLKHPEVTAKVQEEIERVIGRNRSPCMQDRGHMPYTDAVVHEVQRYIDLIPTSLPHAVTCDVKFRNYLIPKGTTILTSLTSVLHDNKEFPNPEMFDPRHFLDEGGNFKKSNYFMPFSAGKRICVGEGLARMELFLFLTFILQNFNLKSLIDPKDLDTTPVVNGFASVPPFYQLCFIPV
# [8] = viability of uninfected HEp-2 cells – cell-based, HTS, cytotoxicity control for RSV inhibitor project, dose response (AID 2410); type: functional; conditions: human respiratory syncytial virus
# Cytochrome P450 1A2 = target: T2, Cytochrome P450 1A2 (Homo sapiens, UniProt P05177);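 note: PubChem cytochrome P450 panel assay, CYP1A2 panel member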
# T2 sequence (P05177 whole entry): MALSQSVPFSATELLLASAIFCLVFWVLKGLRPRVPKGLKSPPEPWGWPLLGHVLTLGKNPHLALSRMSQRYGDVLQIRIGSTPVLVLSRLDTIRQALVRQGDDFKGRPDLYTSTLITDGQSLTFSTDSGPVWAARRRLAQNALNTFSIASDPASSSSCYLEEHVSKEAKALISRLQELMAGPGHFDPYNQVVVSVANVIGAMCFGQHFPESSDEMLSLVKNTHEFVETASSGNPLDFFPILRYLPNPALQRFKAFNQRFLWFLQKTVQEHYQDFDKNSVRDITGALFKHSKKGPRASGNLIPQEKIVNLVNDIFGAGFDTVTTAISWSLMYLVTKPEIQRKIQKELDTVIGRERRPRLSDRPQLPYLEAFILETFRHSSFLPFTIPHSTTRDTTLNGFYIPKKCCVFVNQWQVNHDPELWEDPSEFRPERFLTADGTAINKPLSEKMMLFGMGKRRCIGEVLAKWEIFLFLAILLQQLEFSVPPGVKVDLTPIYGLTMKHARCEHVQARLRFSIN
# Cytochrome P450 2C9 [9] = target: T1, Cytochrome P450 2C9; remark: listed apart in the source
# [10] = loss of viability in HepG2 cells – cell-based, CellTiter-Glo, cherry-picked, cytotoxicity control for Shn3 inhibitor project, dose response (AID 624134); type: functional
# [11] = luciferase reporter signal suppression in cells – H4 neuroglioma cells, luminescence, dose response (AID 1990); type: functional, cell-based
# [12] = tested on: Streptococcus sp. 'group A'; assay: Streptococcus pyogenes SK(-)GAS viability under kanamycin – luminescence, BacTiterGlo, confirmation, counter-screen for streptokinase expression inhibitor project, dose response (AID 1900); type: functional, organism-based
# [13] = NIH3T3 cell viability loss – ATP luminescence, mouse fibroblasts, counter-screen, dose response (AID 2010); type: functional, cell-based;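 note: cells exposed to compound for about 90 hours before reading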
# [14] = reduction of Shn3 3'UTR-driven luciferase in osteoblasts – cell-based, Clone20 osteoblasts, firefly luciferase, cherry-picked, dose response (AID 624132); type: functional;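 note: firefly luciferase luminescence from reporter carrying the Shn3 3'UTR in osteoblasts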
# INS1 = assay: INS-1E survival protection against cytokine death – cell-based, luminescence, retest, dose response (AID 449756); type: functional; conditions: Rattus norvegicus;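 note: cell death triggered by IL-1 beta plus TNF-alpha plus IFN-gamma mixture; protective hits raise ATP signal compared with cytokine alone wells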
# [15] = non-specific 3'UTR reporter inhibition in Clone20-Shn3RL – cell-based, Renilla luciferase, cherry-picked, counter-screen for Shn3 inhibitor project, dose response (AID 624133); type: functional
# [16] = Luminescence Cell-Based Dose Response HTS to Identify Inhibitors of 5'UTR Stem-Loop Driven Prion Protein mRNA Translation in H4 Neuroglioblastoma Cells. [Related pubchem assays: 1827 (Project Summary), 1813 (Primary HTS)]; type: functional
# Streptococcus = assay: GAS UMAA2166 growth inhibition – luminescence, BacTiterGlo, counter-screen for streptokinase expression inhibitor project, dose response (AID 1915); type: functional, organism-based;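 note: potency for reduction of bacterial viability or growth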
# Streptokinase A = target: T3, Streptokinase A (Streptococcus pyogenes serotype M1, UniProt P10520); assay: viability-normalized secreted streptokinase activity reduction – plasminogen activation absorbance, OD405, dose response (AID 1914); type: functional, Streptococcus pyogenes M1 GAS;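 note: secreted streptokinase activity via plasminogen activation per viability signal from cell pellet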
# T3 sequence (P10520 whole entry): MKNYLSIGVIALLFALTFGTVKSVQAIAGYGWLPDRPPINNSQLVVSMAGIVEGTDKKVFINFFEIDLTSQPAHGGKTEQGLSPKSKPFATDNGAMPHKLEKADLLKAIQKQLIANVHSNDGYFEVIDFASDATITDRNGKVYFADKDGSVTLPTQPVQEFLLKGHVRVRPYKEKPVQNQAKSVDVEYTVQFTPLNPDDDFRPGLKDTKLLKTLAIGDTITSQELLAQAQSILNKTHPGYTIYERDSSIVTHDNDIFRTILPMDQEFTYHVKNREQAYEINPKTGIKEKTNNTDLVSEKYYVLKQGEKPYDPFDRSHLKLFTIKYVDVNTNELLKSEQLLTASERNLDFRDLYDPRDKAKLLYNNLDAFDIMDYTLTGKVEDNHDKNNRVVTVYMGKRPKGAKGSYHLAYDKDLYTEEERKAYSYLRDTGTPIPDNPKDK
# [17] = Trypanosoma cruzi growth suppression in host cells – NIH3T3 host cells, beta-gal luminescence, confirmation (AID 2044); type: functional, cell-based;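 note: intracellular parasites grown in NIH/3T3 mouse fibroblasts as host cells; luminescent beta-galactosidase reporter signal from transgenic T. cruzi replicating inside host cells; inhibitors lower the luminescence signal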
# [18] = alpha-synuclein stem-loop luciferase translation blockers – H4 neuroglioma cells, luminescence, confirmation (AID 1988); type: functional, cell-based
# [19] = target: T4, Rac GTPase-activating protein 1 (Homo sapiens, UniProt Q9H0H5); assay: blockers of MgcRacGAP-driven Rac1 GTP hydrolysis – biochemical, ADP Hunter fluorescence, primary and confirmatory, confirmation (AID 624330); type: functional
# T4 sequence (Q9H0H5 whole entry): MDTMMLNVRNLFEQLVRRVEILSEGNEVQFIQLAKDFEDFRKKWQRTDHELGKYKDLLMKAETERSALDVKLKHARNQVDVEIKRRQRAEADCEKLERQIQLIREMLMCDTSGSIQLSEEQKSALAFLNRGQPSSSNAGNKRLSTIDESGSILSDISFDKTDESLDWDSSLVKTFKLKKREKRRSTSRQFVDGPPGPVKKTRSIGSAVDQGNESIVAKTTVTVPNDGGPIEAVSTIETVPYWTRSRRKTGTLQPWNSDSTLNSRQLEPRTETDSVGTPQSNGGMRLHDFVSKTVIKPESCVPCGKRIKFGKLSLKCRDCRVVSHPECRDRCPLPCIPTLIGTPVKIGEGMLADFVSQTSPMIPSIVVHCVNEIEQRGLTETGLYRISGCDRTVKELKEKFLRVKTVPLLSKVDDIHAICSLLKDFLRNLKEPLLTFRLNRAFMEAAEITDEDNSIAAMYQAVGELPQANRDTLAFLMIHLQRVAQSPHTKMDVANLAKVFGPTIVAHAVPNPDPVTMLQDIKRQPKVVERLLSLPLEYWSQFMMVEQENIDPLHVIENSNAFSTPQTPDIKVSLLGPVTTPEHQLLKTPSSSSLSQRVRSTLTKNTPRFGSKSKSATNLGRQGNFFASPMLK
# Nonstructural protein 1 = Nonstructural protein 1 (Influenza A virus, UniProt Q194T2); type: functional, Influenza A virus (A/California/07/2009(H1N1))
# Chain of Nonstructural protein 1 (Q194T2 whole entry): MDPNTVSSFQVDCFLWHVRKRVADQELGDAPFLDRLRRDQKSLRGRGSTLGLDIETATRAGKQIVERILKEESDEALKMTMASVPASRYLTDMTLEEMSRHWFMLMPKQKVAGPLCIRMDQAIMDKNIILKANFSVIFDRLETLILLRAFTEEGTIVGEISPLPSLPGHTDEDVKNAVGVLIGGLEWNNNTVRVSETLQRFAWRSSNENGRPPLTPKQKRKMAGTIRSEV
smiles,measurement,setting,value
C[C@H](CO)N1C[C@H](C)[C@H](CN(C)C(=O)Nc2ccc(F)cc2)Oc2ncc(C#Cc3ccc(C(F)(F)F)cc3)cc2C1=O,AC50,[1],2.59 µM (active)
Cc1ccc(N2CCN(C(=O)N3CCCC3)CC2)cc1Cl,AC50,[2],27.2 µM (active)
C[C@@H]1CCCCO[C@@H](CN(C)C(=O)Nc2ccc(C(F)(F)F)cc2)[C@@H](C)CN([C@H](C)CO)C(=O)c2cc(NC(=O)Nc3ccc(F)cc3)ccc2O1,AC50,[1],4.68 µM (active)
COc1ccc([Si](C)(C)[C@@H]2[C@@H](CCO)O[C@]3(C(=O)N4c5c(cc(OC)cc53)C(C)=CC4(C)C)[C@H]2C)cc1,AC50,[3],11.8 µM (active)
same,AC50,[4],17.2 µM (active)
same,AC50,[5],16.8 µM (active)
O=C(NCC(=O)N(Cc1cccs1)C(C(=O)NC1CCCCC1)c1ccco1)c1ccco1 (centres undefined),IC50,H9c2,7.48 µM (active)
CCN(CC)S(=O)(=O)c1ccc2c3c(cccc13)C(=O)S2,AC50,Cytochrome P450 2C9 [6],inconclusive
same,AC50,Cytochrome P450 3A4,17.8 µM (inconclusive)
CC(=O)NCCNc1nc2c(-c3ccccc3)nnn2c2ccccc12,IC50,H9c2,> 79 µM (inactive)
COc1cnn(-c2ccccc2)c(=O)c1SCc1ccc(Cl)cc1Cl,IC50,[7],1.26 µM (not active)
Cc1cc(C(=O)COc2ccccc2C(N)=O)c(C)n1C,IC50,H9c2,> 79 µM (inactive)
CC(=O)N1CCN=C1SCc1cccc(F)c1,AC50,[2],6.74 µM (active)
O=C1CSC(c2ccccn2)N1c1ccccc1 (centres undefined),AC50,[2],0.225 µM (active)
C[C@H]1CN([C@@H](C)CO)C(=O)Cc2cc(NC(=O)C3CCCCC3)ccc2O[C@@H]1CN(C)Cc1ccc2c(c1)OCO2,AC50,[1],2.81 µM (active)
Cc1ccc(S(=O)(=O)Nc2ccc3c(c2)CC(=O)N([C@H](C)CO)C[C@@H](C)[C@@H](CN(C)S(=O)(=O)c2ccc(C)cc2)O3)cc1,AC50,[1],4.11 µM (active)
Brc1[nH]nc2ccccc12,AC50,Cytochrome P450 2C9 [6],inconclusive
same,AC50,Cytochrome P450 2C19,11.2 µM (inconclusive)
CS/C(=N\S(=O)(=O)c1ccccc1)c1ccccc1,IC50,H9c2,> 79 µM (inactive)
O=C1Nc2cnc(Cl)nc2Nc2ccccc21,IC50,H9c2,18.7 µM (active)
Sc1nnc(-c2ccccn2)n1/N=C/c1ccc(-c2ccccc2Cl)o1,AC50,[2],5.29 µM (active)
same,CC50,[8],> 50 µM (active)
Cc1[nH]n(-c2ccccc2)c(=O)c1CCOC(=O)c1cccc(C(F)(F)F)c1,AC50,Cytochrome P450 2C9 [6],inconclusive
same,AC50,Cytochrome P450 1A2,22.4 µM (inconclusive)
O=C(Nc1ccc(N2CCCCC2)cc1)c1cccnc1,AC50,[2],21.6 µM (active)
O=S(=O)(Nc1ccc(N2CCCCC2)cc1)c1cccc2cccnc12,AC50,[2],0.723 µM (active)
CCOc1ccc(C(=O)Nc2cccc(-c3nc4cccnc4o3)c2)cc1Cl,AC50,Cytochrome P450 1A2,5.01 µM (inconclusive)
same,AC50,Cytochrome P450 2C19,14.1 µM (inconclusive)
same,AC50,Cytochrome P450 3A4,6.31 µM (inconclusive)
same,AC50,Cytochrome P450 2C9 [9],14.1 µM (inconclusive)
same,IC50,H9c2,> 79 µM (inactive)
CC(=O)c1c(C)[nH]c(C(=O)OCC(=O)Nc2c(C)cccc2C)c1C,AC50,[4],0.745 µM (active)
same,AC50,[5],3.02 µM (active)
Cc1noc(C)c1S(=O)(=O)N(C)C[C@@H]1Oc2ccc(NC(=O)NC3CCCCC3)cc2CC(=O)N([C@@H](C)CO)C[C@@H]1C,AC50,[3],9.11 µM (active)
same,AC50,[4],7.36 µM (active)
same,AC50,[5],5.37 µM (active)
C[C@@H]1CN([C@H](C)CO)C(=O)Cc2cc(NC(=O)Nc3ccc(C(F)(F)F)cc3)ccc2O[C@H]1CN(C)Cc1ccc(C(F)(F)F)cc1,AC50,[1],6.59 µM (active)
COc1cc(C)c(C(=O)CC(=O)c2c(C)cc(OC)cc2C)c(C)c1,AC50,[10],> 70 µM (inactive)
same,EC50,[11],10.7 µM (active)
same,EC50,[12],3.96 µM (active)
same,EC50,[13],6.5 µM (active)
same,AC50,[14],7.4 µM (active)
same,AC50,INS1,8.81 µM (active)
same,AC50,[15],21.8 µM (active)
same,EC50,[16],73.2 µM (active)
same,EC50,Streptococcus,> 150 µM (not active)
same,EC50,Streptokinase A,68.7 µM (active)
same,EC50,[17],2.67 µM (active)
same,EC50,[18],> 120 µM (not active)
COc1cc(C)c(Br)cc1S(=O)(=O)NCc1ccccc1,AC50,Cytochrome P450 2C9 [6],inconclusive
Cc1nnc2ccc(-c3cccc(NC(=O)c4ccc(Cl)nc4)c3)nn12,IC50,H9c2,> 79 µM (inactive)
CN(C)c1ccc(C(=O)NC2(N3CCC3=O)CCCC2)cc1,AC50,[2],2.55 µM (active)
same,IC50,[19],126 µM (active)
CCOC(=O)c1cc2c(=O)n3cccc(C)c3nc2n(CCCOC)/c1=N\C(=O)c1cccnc1,IC50,H9c2,> 79 µM (inactive)
CCN(c1ccc(NC(=O)COC(=O)c2cccs2)cc1)C(C)C,IC50,[7],1.4 µM (not active)
C[C@H](CO)N1C[C@H](C)[C@@H](CN(C)Cc2ccc(Cl)c(Cl)c2)Oc2c(NC(=O)c3ccncc3)cccc2C1=O,AC50,[1],0.08 µM (active)
Oc1cc(-c2cccnc2)cc2cccnc12,AC50,[10],10.9 µM (active)
same,AC50,[14],9.27 µM (active)
same,IC50,Nonstructural protein 1,15.6 µM (active)
same,AC50,[15],4.04 µM (active)
C[C@H]1CN([C@@H](C)CO)C(=O)Cc2cc(N(C)C)ccc2O[C@H]1CN(C)Cc1ccc(C(=O)Nc2ccccc2N)cc1,AC50,[1],1.93 µM (active)
Cc1nn(Cc2ccc(F)cc2)c2sc(C(=O)Nc3ccc(N4CCOCC4)cc3N3CCOCC3)cc12,IC50,[7],2.73 µM (not active)
C[C@@H]1CN([C@H](C)CO)C(=O)Cc2cc(NC(=O)Nc3ccc(C(F)(F)F)cc3)ccc2O[C@@H]1CN(C)Cc1ccncc1,AC50,[1],2.05 µM (active)
C[C@H](CO)N1C[C@H](C)[C@H](CN(C)Cc2ccc(Cl)c(Cl)c2)Oc2c(NC(=O)CCCCCC(=O)Nc3ccccc3N)cccc2C1=O,AC50,[1],1.65 µM (active)
